Columns and labels:
HeLa cells [1] = test: Metabolic labeling of Met-depleted HeLa cells; Aha incorporation quantified by protein fluorescence (FAM-BCN, SDS-PAGE); format: cell-based
Experimental: Subsequent irradiation with UV light (λ=365 nm, 10 mW cm^−2, 5 min) yielded photoliberated Aha for metabolic incorporation. Two hours after light exposure, cells were lysed and their proteins were treated with a bicyclononyne-modified fluorescein (FAM-BCN, 100 nM, FIG. 2E) to introduce a fluorescent label by SPAAC. Protein fluorescence was then used to quantify the extent of Aha incorporation following protein separation by sodium dodecyl sulfate polyacrylamide gel electrophoresis (SDS-PAGE).
To control the extent of ncAA incorporation into newly synthesized proteins, NPPOC-Aha concentration was varied (0-250 μM) and the intensity of light irradiation (0-10 mW cm^−2) employed during photo-uncaging. […] To determine the potential effects of UV irradiation on metabolic incorporation, labeled protein fluorescence was compared for samples treated with Aha (50 μM)+/−light (10 mW cm^−2, 5 min) (FIG. 3D).
For in vitro work, borosilicate well plates (Mattek, P35G-1.5-14-C) were pretreated with high glucose Dulbecco's Modified Eagle Media (DMEM) supplemented with fetal bovine serum (FBS, 10%) and penicillin-streptomycin (PS, 1%). Plates were incubated at 37° C. for 10 minutes. HeLa cells were cultured on tissue culture polystyrene before seeding on borosilicate glass. After cells reached the desired confluency (50-60% for imaging; 80-90% for lysate analysis), cells were subjected to the following experiments.
Cells were rinsed with warm 1× Dulbecco's phosphate buffered saline (DPBS) and starved of methionine (Met) by the addition of Met-depleted media (1 h, 37° C.). Met-depleted media was prepared by adding L-cystine-2HCl (0.2 mM), L-glutamine (4 mM), and sodium pyruvate (1 mM) to depleted media (Fisher, 21013024). Media was removed and cells were treated with media containing NPPOC-Aha at the desired concentration (0-250 μM). Control media consisted of Aha or Met in the place of NPPOC-Aha. Cells were then irradiated with light (365 nm, 1-10 mW/cm2, 5 min). The cultures were then incubated (2 h, 37° C.) to promote Aha incorporation. The cells were then washed with 1×DPBS (37° C.).
Samples were prepared for sodium dodecyl sulfate polyacrylamide gel electrophoresis (SDS-PAGE) by lysing cells in lysis buffer (10 mM PO4, pH 7.0, 0.5% sodium dodecyl sulfate). Proteins were collected and immediately placed on ice. Free thiols were capped by the addition of iodoacetamide (10 mM, 30 min, room temperature). Azide-containing proteins were labeled by treatment with FAM-BCN (10 μM, 5 hours, room temperature). Excess FAM-BCN was removed by precipitating proteins with 4× sample volume of cold acetone (−20° C.). Lysates were incubated in acetone (1 h, −20° C.) and then subjected to centrifugation (14,000×g, 10 min). Proteins were redissolved in lysis buffer with gentle heating (40° C., 10 min), precipitated once more, and washed with 4× sample volume acetone before drying (20 min). Proteins were then dissolved in SDS-PAGE sample buffer (50 mM Tris-HC, 2% SDS, 10% glycerol, 12.5% β-mercaptoethanol, 0.025% bromophenol blue). Proteins were electrophoretically separated by a 12% polyacrylamide gel by applying a potential of 105 V. After electrophoresis, gels were scanned on a Typhoon FLA9000 fluorescent gel scanner before being stained with coomassie dye.

[2] = NPPOC-Aha photo-uncaging (photolysis) kinetics by HPLC; format: physicochemical
Source text: For this system to be effective, the kinetics of NPPOC uncaging should be rapid, such that the liberation of free Aha is not rate limiting compared with the biological processes under study. To determine its photolysis kinetics, NPPOC-Aha (dissolved in H2O:CH3CN, 50:50) was irradiated with collimated UV light (λ=365 nm, 10 mW cm^−2, 0-600 s exposure). Degradation products were quantitatively analyzed by HPLC, with elution fractions compositionally identified by mass spectrometry.
To determine the kinetics of NPPOC-Aha uncaging upon UV light exposure, NPPOC-Aha (3.4 mM dissolved in 50:50 dH2O:CH3CN) was placed in quartz NMR tubes and irradiated with collimated UV light (365 nm, 10 mW/cm^2) emanating from an OmniCure (series 1500; light intensity measured with Cole-Palmer series 9811 radiometer). Time points were collected every 120 s for a total of 600 s. The resulting degradation products were separated by reverse-phase HPLC, eluting with a CH3CN/dH2O gradient ramping from 5% to 100% CH3CN over 55 minutes. Remaining NPPOC-Aha was identified by HRMS (ESI+). Calculated for C14H18N5O6 [M+1H]+, 352.1257; observed 352.1259 (Δ=0.5 ppm). The HPLC peak corresponding to starting material was integrated and monitored over time.

HeLa cells [3] = test: Spatial labeling of phototagged cells in 3D tissue culture (PEG hydrogel, slitted photomask); format: cell-based; details: cells in oxime-based PEG hydrogels (7 wt %), irradiated through slitted photomask
Source text: Cells were encapsulated in oxime-based poly(ethylene glycol) hydrogels (7 wt %), treated with NPPOC-Aha and selectively irradiated through a slitted photomask. Cells were fixed and fluorescently labeled with FAM-BCN, phalloidin, and Hoechst. […] FAM fluorescence decreased exponentially away from exposed regions in a diffusion-predicted manner. Actin and DNA staining lack substantial patterning (FIG. 4).
HeLa cells were liberated from the tissue culture plate with trypsin, resuspended in FBS-supplemented DMEM, and pelleted by centrifugation. The cells were then gently resuspended in depleted media containing the photocaged Aha. Hydrogel precursors (10 k PEG functionalized with alkoxyamines or benzaldehyde) were combined (1:1 benzaldehyde:alkoxyamine stoichiometry) with cells prior to deposition on a glass-bottomed well plate (7 wt %, 10 mM aniline, 5 million cells/mL). After the gel had formed (30 min), it was inundated with depleted media containing […] (100 μM 30 min). Excess media was removed by aspiration and a subsection of the gel was irradiated with light (365 nm, 10 mW/cm2, 5 min) through a slitted photomask. Gels were washed with warm 1×DPBS (37° C., 15 min) before fixing with formaldehyde (4%, 1 hr, room temperature). Fixed cells were rinsed with 1×DPBS, and permeabilized with Triton™ X-100 (Sigma, 0.5%, 1 hr, room temperature). Cells were then washed (3×, 1 hr each) with 1×DPBS. […]

HeLa cells [4] = test: NPPOC-Aha in vitro stability in media with HeLa cells; format: in vitro ADME
Experimental: To assess its in vitro stability, NPPOC-Aha (100 μM) was incubated in media with HeLa cells for 0-4 hr prior to light exposure (10 mW cm^−2, 5 min) and subsequent metabolic labeling (2 hr). […] Such stability is useful in sampling biological systems, as it decouples media swaps from proteome labeling, allowing researchers to standardize their experimental conditions.
The stability of NPPOC-Aha was conducted using the above protocols for cell culture and SDS-PAGE with minor modifications. Instead of irradiating samples immediately following addition of NPPOC-Aha media, NPPOC-Aha was incubated in the presence of cells for the desired time (0-4 hours) prior to light exposure. Met (3.33 μM) was added to all media, yielding a 30:1 ratio of NPPOC-Aha:Met5.

HeLa cells [5] = test: Fluorescent labeling of phototagged fixed cells (confocal imaging); format: cell-based; details: NPPOC-Aha 100 μM in the absence of light
Experimental: Building on the capability to fluorescently tag cellular lysates as well as isolate species of interest via laBONCAT, the technique's unique ability to label newly synthesized proteins in vitro with spatial control was investigated; this method could be applied to the isolation of proteins […] at user-specified times and locations from heterogeneous features in tissue culture, especially tissue slices. HeLa cells were treated with NPPOC-Aha (100 μM) and exposed to light (λ=365 nm, 10 mW cm^−2, 5 min). Two hours after exposure, cells were fixed, permeabilized, and treated with FAM-BCN (100 nM) to introduce a fluorescent label via SPAAC.
To fluorescently label Aha-tagged proteins for visualization, cells were rinsed with warm 1×DPBS (37° C.) before fixing with formaldehyde (4%, 10 min, room temperature). Fixed cells were rinsed with 1×DPBS, and permeabilized with Triton™ X-100 (Sigma, 0.5%, 2 min, room temperature). Cells were then washed (3×, 5 min each) with 1×DPBS. Azides were labeled by strain-promoted azide-alkyne cycloaddition (SPAAC) with FAM-BCN (100 nM, 30 min, room temperature) in the dark. Next, labeled cells were washed (3×, 5 min each) with 1×DPBS prior to imaging on a Leica SP8X laser scanning confocal microscope.

[6] = control media with Aha or Met in place of NPPOC-Aha

Row | NPPOC cleaved ([2]; after 5 minutes of irradiation, 365 nm, 10 mW cm-2) [%] | Aha incorporation after pre-incubation, irradiated samples (HeLa cells [4]; 100 μM, 0-4 hr in media with HeLa cells, then light) | working time (stability in media with cells) (HeLa cells [4]; NPPOC-Aha 100 μM incubated with HeLa cells 0-4 hr before light (10 mW cm^−2, 5 min), labeling 2 hr) [h] | Structure (SMILES) | protein fluorescence (extent of Aha incorporation) (HeLa cells [1]; [6]) | effect of UV irradiation on protein labeling (HeLa cells [1]; Aha 50 μM +/− light (10 mW cm^−2, 5 min)) | free Aha concentration above which normalized incorporation plateaus (HeLa cells [1]; incorporation normalized for expected liberated Aha predicted by the photokinetics) | first-order decay constant for NPPOC photolysis ([2]; H2O:CH3CN 50:50, collimated UV λ=365 nm, 10 mW cm^−2, 0-600 s) [s⁻¹] | cellular FAM signal pattern (patterned Aha incorporation) (HeLa cells [3]) | Aha incorporation after pre-incubation, non-irradiated samples (HeLa cells [4]; 100 μM, 0-4 hr in media with HeLa cells, no light) | extent of fluorescent labeling of fixed cells (HeLa cells [5]) | Aha incorporation as function of NPPOC-Aha concentration (HeLa cells [1]; NPPOC-Aha 0-250 μM, given exposure condition) | protein fluorescence (extent of Aha incorporation) (HeLa cells [1]; NPPOC-Aha 250 μM, UV-treated (365 nm, 10 mW cm^−2, 5 min), lysis 2 h after exposure) | protein fluorescence (extent of Aha incorporation) (HeLa cells [1]; NPPOC-Aha 250 μM, non-irradiated) | dependence of protein labeling on mode of irradiation (HeLa cells [1]; NPPOC-Aha irradiated separately or during incubation with cells) | incorporation of irradiated NPPOC-Aha compared with Aha (HeLa cells [1]; each at 100 μM, NPPOC-Aha + light) | metabolic labeling as function of light intensity (HeLa cells [1]; low NPPOC-Aha concentrations, 0-10 mW cm^−2)
1 |  |  |  | CSCC[C@H](N)C(=O)O [Met, L-methionine, reference compound] | lack of fluorescence |  |  |  |  |  |  |  |  |  |  |  | 
2 |  |  |  | [N-]=[N+]=NCC[C@H](N)C(=O)O [Aha, L-Azidohomoalanine, reference compound] | significant fluorescent enhancement | no statistical difference | about 50 μM |  |  |  |  |  |  |  |  |  | 
3 | 90 | extent decreased over time | > 4 | CC(COC(=O)N[C@@H](CCN=[N+]=[N-])C(=O)O)c1ccccc1[N+](=O)[O-] (stereo partly drawn) [NPPOC-Aha, (2S)-4-azido-2-({[2-(2-nitrophenyl)propoxy]carbonyl}amino)butanoic Acid] |  |  |  | 0.0075 ± 0.0002 | localized near exposed regions | did not show increased incorporation over time | low-level labeling similar to Met | increased with NPPOC-Aha concentration | significant fluorescent enhancement | lack of fluorescence | does not depend on whether NPPOC-Aha is irradiated separately or during incubation with cells | slightly less incorporation than Aha alone | increased with light intensity

Source: patent US20210048439A1, “CAGED AMINO ACIDS FOR CONTROLLED METABOLIC INCORPORATION AND METHODS OF USE” (University of Washington, priority 2018, published 2021)
